Measurements as given in BindingDB's records for PubMed 2885406 (University of California, 1987).
Values joined by “and” are separate entries in the source; they are usually repeats but may differ in a detail not shown here. Identical values can stand only once.

These molecules were tested against T1, Alpha-2C adrenergic receptor (Rattus norvegicus, UniProt P22086).
T1 sequence (P22086 whole entry): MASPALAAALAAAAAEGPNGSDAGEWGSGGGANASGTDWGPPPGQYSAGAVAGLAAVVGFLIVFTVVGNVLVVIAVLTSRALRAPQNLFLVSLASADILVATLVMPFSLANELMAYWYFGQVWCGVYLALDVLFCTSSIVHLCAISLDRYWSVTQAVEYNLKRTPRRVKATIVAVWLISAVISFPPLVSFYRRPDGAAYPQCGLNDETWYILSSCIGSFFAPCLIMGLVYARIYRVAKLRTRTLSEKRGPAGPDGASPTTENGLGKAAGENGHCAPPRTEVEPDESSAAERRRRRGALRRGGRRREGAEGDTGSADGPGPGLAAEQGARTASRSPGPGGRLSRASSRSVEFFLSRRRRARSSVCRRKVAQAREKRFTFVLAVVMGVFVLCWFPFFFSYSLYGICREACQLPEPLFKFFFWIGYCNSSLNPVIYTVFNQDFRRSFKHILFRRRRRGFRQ

Compound	Ki
CC(C)(C)[C@]1(O)CCN2C[C@H]3c4ccccc4CCc4cccc(c43)[C@@H]2C1	220 nM and 107 nM
COc1ccc(OC)c(C(O)C(C)N)c1 (stereo not given)	> 10000 nM
NCCc1ccc(O)c(O)c1	> 10000 nM and 9990 nM
O=C(c1ccc(F)cc1)C1CCN(CCn2c(=O)[nH]c3ccccc3c2=O)CC1 [3-(2-{4-[(4-fluorophenyl)carbonyl]piperidin-1-yl}ethyl)-1,2,3,4-tetrahydroquinazoline-2,4-dione]	2210 nM and 441 nM
CN1Cc2c(N)cccc2[C@H](c2ccccc2)C1 [(+/-)-2-Methyl-4-phenyl-1,2,3,4-tetrahydro-isoquinolin-8-ylamine]	8500 nM and 4990 nM
C=CCN1CCc2nc(N)sc2CC1 [B-HT 920]	152 nM and 62.2 nM
NC(N)=NN=Cc1c(Cl)cccc1Cl [Guanabenz]	5.8 nM and 36.7 nM
CCN1CCCC1CNC(=O)c1cc(S(N)(=O)=O)ccc1OC (stereo not given) [N-[(1-ethylpyrrolidin-2-yl)methyl]-2-methoxy-5-sulfamoylbenzamide]	6120 nM and 682 nM
NCCc1c[nH]c2ccc(O)cc12 [[3H]-5-HT]	> 10000 nM
C[C@H](N)Cc1ccccc1 [beta-aminopropylbenzene]	992 nM and 2410 nM
